Source: ChEMBL document CHEMBL1132968, “Substituent effects on the antibacterial activity of nitrogen-carbon-linked (azolylphenyl)oxazolidinones with expanded activity against the fastidious gram-negative organisms Haemophilus influenzae and Moraxella catarrhalis” (2000)
Converted amounts (≈) assume the structure as drawn.

Legend:
Assay type in all cases: functional
[1] = tested on: Enterococcus faecalis; experiment: Inhibitory activity against Enterococcus faecalis UC9217
[2] = tested on: Streptococcus pneumoniae; experiment: Inhibitory activity against Streptococcus pneumoniae UC9912
[3] = tested on: Moraxella catarrhalis; experiment: Inhibitory activity against Moraxella catarrhalis UC30610
[4] = tested on: Haemophilus influenzae; experiment: Inhibitory activity against Haemophilus influenzae UC30063
[5] = tested on: Staphylococcus epidermidis; experiment: Inhibitory activity against Methicillin-resistant Staphylococcus epidermidis UC12084
[6] = tested on: Staphylococcus aureus; experiment: Inhibitory activity against Methicillin-resistant Staphylococcus aureus UC6685
[7] = tested on: Mus musculus; experiment: Dose required to cure 50% of Staphylococcus aureus infected mice when orally administered;value ranges from 3.1-7.8; conditions: po
[8] = tested on: Mus musculus; experiment: Dose required to cure 50% of Staphylococcus aureus infected mice in the presence of vancomycin when administered orally.; conditions: po
[9] = tested on: Staphylococcus aureus; experiment: Inhibitory activity against Methicillin-susceptible Staphylococcus aureus UC9213
[10] = tested on: Mus musculus; experiment: Dose required to cure 50% of Staphylococcus aureus infected mice when administered orally;; conditions: po
[11] = tested on: Mus musculus; experiment: Dose required to cure 50% of Staphylococcus aureus infected mice in the presence of eperezolid when administered orally; vlue ranges from 1.1-2.8; conditions: po
[12] = tested on: Mus musculus; experiment: Dose required to cure 50% of Staphylococcus aureus infected mice when administered orally; the value ranges from 1.1-3.3; conditions: po
[13] = tested on: Mus musculus; experiment: Dose required to cure 50% of Staphylococcus aureus infected mice in the presence of eperezolid when orally administered; the value ranges from 1.7-4.5; conditions: po

Structure (SMILES) | MIC [1] [µg/mL] | MIC [2] [µg/mL] | MIC [3] [µg/mL] | MIC [4] [µg/mL] | MIC [5] [µg/mL] | MIC [6] [µg/mL] | ED50 [7] [mg/kg/day] | ED50 [8] [mg/kg/day] | MIC [9] [µg/mL] | ED50 [10] [mg/kg/day] | ED50 [11] [mg/kg/day] | ED50 [12] [mg/kg/day] | ED50 [13] [mg/kg/day]
CC(=O)NC[C@H]1CN(c2ccc(-n3ccnn3)c(F)c2)C(=O)O1 | 1 (≈ 3.13 µM) | ≤ 0.5 | 2 (≈ 6.26 µM) | 4 (≈ 12.5 µM) | ≤ 0.5 | 1 (≈ 3.13 µM) | 4.7 | 2 | 1 (≈ 3.13 µM) | – | – | – | –
CC(=O)NC[C@H]1CN(c2ccc(-n3cnnc3)c(F)c2)C(=O)O1 | 8 (≈ 25.1 µM) | 1 (≈ 3.13 µM) | 8 (≈ 25.1 µM) | > 16 | 4 (≈ 12.5 µM) | 8 (≈ 25.1 µM) | – | – | 16 (≈ 50.1 µM) | > 20 | 2 | – | –
CC(=O)NC[C@H]1CN(c2ccc(-n3cc(C#N)nn3)c(F)c2)C(=O)O1 | 1 (≈ 2.9 µM) | ≤ 0.125 | 2 (≈ 5.81 µM) | 2 (≈ 5.81 µM) | 0.25 (≈ 0.726 µM) | 0.5 (≈ 1.45 µM) | – | – | 1 (≈ 2.9 µM) | – | – | 1.9 | 2.8
